Experimental data as given in paper PMC6789589, “A Convenient Synthetic Method to Improve Immunogenicity of Mycobacterium tuberculosis Related T-Cell Epitope Peptides” (Vaccines, 2019).
Starred links: 1 amine or outer side, 2 acyl side, 3 side chain; linkers in the order of their positions; H or OH if unused. Positions of bridges follow the written chain, without caps; N, C: chain ends. Residues, ends and D or L forms follow the SMILES beside them. Chains are numbered I, II in the order given. *: point of attachment. X1 = O=C1CC([*:2])C(=O)N1CCCCCC(=O)[*:1]; Palmitoyl = CCCCCCCCCCCCCCCC(=O)*

Columns and labels:
[1] = tested on: human erythrocyte suspension; assay: Hemolytic activity assay on human erythrocyte suspension; assay type: cell-based; details: 2% (v/v) human erythrocyte suspension, 2 h, 37 °C, 0.05–100 µM
Procedure: The hemolytic activity of the compounds was measured on human erythrocyte suspension. Cytotoxicity was assayed on murine BMDM. These two experiments are detailed in the Supplementary Information.
The hemolytic activity of the compounds was assayed as described previously. Briefly, peripheral blood from healthy volunteers was collected in vacuum tubes containing heparin (Li-heparin LH, VenoSafe) as anticoagulant. Tubes were centrifuged (1000 g, 5 min) and the pellet was washed three times with RPMI-1640 (culturing medium without phenol red). RPMI medium was added to the pellet to yield a final 2% (v/v) RBC suspension. […]
0.5%). […] After centrifugation (1000 g, 5 min), 100 µL of the supernatant was transferred to a flat-bottom microtiter plate and absorbance was measured at 414 nm using an ELISA plate reader (iEMS Reader, Labsystems). The percentage hemolysis was compared to a hemolytic control peptide (CM15, 200 μM) treated RBC and the concentration of peptide at which 50% hemolysis occurred (HC50 value) was determined. Compounds were measured in triplicates.
The cytotoxic effect of the compounds was measured on murine BMDMs. […] The precipitated purple crystals were dissolved in 100 μL DMSO, and after 10 minutes agitation, the absorbance was determined at λ = 540 nm and 620 nm using an ELISA plate reader (iEMS Reader, Labsystems). […]
1 Determined on 2% (v/v) human erythrocyte suspension. […]

[2] = Water solubility (observation); assay type: physicochemical
[3] = tested on: MonoMac6 human monocytes (MM6); assay: Cellular uptake (internalization) by flow cytometry in MonoMac6; details: Cf-labelled compounds, MM6, 2.5 µM, 2 h, flow cytometry histograms (Figure S1)
Procedure: Internalization of the compounds was measured in the MonoMac6 (MM6) human monocytic cell line [31] and on murine bone marrow-derived macrophages (BMDMs). MonoMac6 cells were maintained as an adherent culture in RPMI-1640 supplemented with 10% heat-inactivated fetal calf serum (FCS) L-glutamine (2 mM) and gentamicin (35 μM) at 37 °C in a humidified atmosphere containing 5% CO2. […] For the assay, cells were treated with peptides at 2.5 µM final concentration and were incubated for 2 hours. After centrifugation (1000 rpm, 5 min) and washing with serum-free RPMI medium, supernatant was removed and 100 μL 0.25% trypsin was added to the cells. After 5 min incubation, 0.8 mL 10% FCS/HPMI medium was added, then cells were washed and re-suspended in 0.3 mL HPMI medium. The intracellular fluorescence intensity of the cells was measured on a BD LSR II flow cytometer (BD Biosciences, San Jose, CA, USA) on channel FITC (emission at λ = 505 nm) and data were analyzed with FACSDiva 5.0 software (BD Biosciences, San Jose, CA, USA). External fluorescence quenching was performed by adding 10 µL of 0.04% trypan blue solution. […]
treated with the compounds, then cells were analyzed by flow cytometry. To quantify viable cells, […]
negative control, RPMI medium was used (b) and the FITC-negative population was determined on this

MM6 cells = assay: Intracellular localization by confocal laser scanning microscopy; assay type: cell-based, human; details: Cf-labelled peptides, 60 min; P/A/I mix 5 µM, A(P)I 2.5 µM, pal-A(P)I 0.5 µM
Procedure: Cellular uptake and localization were visualized by confocal microscopy. MM6 cells were seeded (10^5 cells/well) one day prior to treatment on cover glass containing 24-well plates (Sarstedt, Nümbrecht, Germany). Lysosomes were stained by LysoTracker^TM Deep Red (Invitrogen, Carlsbad, CA, USA) for 30 min, followed by incubation with Cf-labeled peptides for 60 min. Subsequently, nuclei were stained by Hoechst 33342 solution (Thermo Scientific, Waltham, MA, USA). After each step, cells were washed three times with serum-free medium. Cells were fixed by 4% paraformaldehyde for 15 min and mounted to microscopy slides with Mowiol® 4–88. Imaging was performed on a Zeiss LSM 710 system with 40× oil immersion objective. Images were processed with ZEN lite software (Zeiss, Oberkochen, Germany).
Localization of the compounds was visualized by confocal laser scanning microscopy in MM6 cells (Figure 2c). Cells were incubated with Cf-labelled peptides for 60 min; moreover, nuclei and lysosomes were also stained. The peptide concentrations for P/A/I mix, A(P)I, and pal-A(P)I were 5, 2.5, and 0.5 µM, respectively. As different compound concentrations and laser intensities were also used to visualize the compounds showing low or high internalization, the presented images give information about the intracellular localization and are not to be considered in a quantitative manner.

antigen presenting cells = assay: Time course of cellular uptake by flow cytometry; assay type: cell-based; details: incubation 15 min to 16 h, FITC-positive cells and mean fluorescence intensity (Figure 3c)
Procedure: To further analyze the internalization of the compounds, the time course of the cellular uptake rate was measured by flow cytometry. […] The internalization rate of pal-A(P)I conjugate was very fast.
Figure 3 Detailed study on the cellular uptake by antigen presenting cells and the time course of internalization. Fluorescence intensity of compound treated cells was analyzed by flow cytometry (a) with or without trypsinization, and (b) in the presence or absence of trypan blue. No significant differences were observed after eliminating the fluorescent signal from adsorbed peptides or conjugates. (c) To study the time course of internalization, different incubation periods (15 min, 1 h, 3 h, 6 h, and 16 h) were applied, and the intracellular fluorescence intensity was measured. (d) The viability of compound-treated cells was compared to untreated control cells, and relative viabilities are presented. The viability of the control cells was always > 85% (results are represented as mean ± SEM, n = 3).

CCCCCCCCCCCCCCCC(=O)N[C@@H](CCCCN)C(=O)N[C@@H](CC(C)C)C(=O)N[C@H](C(=O)N[C@@H](C)C(=O)N[C@@H](CC(N)=O)C(=O)N[C@@H](CC(N)=O)C(=O)N[C@H](C(=O)N[C@@H](CCCNC(=N)N)C(=O)N[C@@H](CC(C)C)C(=O)N[C@H](C(=O)N[C@@H](CCCCNC(=O)CCCCCN1C(=O)CC(SC[C@H](NC(=O)[C@H](C)NC(=O)[C@@H](NC(=O)[C@@H]2CCCN2C(=O)[C@@H](NC(=O)[C@@H](NC(=O)[C@H](CC(N)=O)NC(=O)[C@@H](NC(=O)CNC(=O)[C@H](Cc2ccccc2)NC(=O)[C@@H](N)Cc2ccccc2)[C@@H](C)CC)[C@@H](C)O)[C@@H](C)CC)[C@@H](C)CC)C(N)=O)C1=O)C(=O)N1CCC[C@H]1C(=O)N[C@@H](CCCCN)C(=O)NCC(=O)NCC(=O)N[C@@H](CC(C)C)C(=O)N[C@H](C(=O)N[C@@H](CC(=O)O)C(=O)N[C@H](C(=O)N[C@@H](C)C(=O)N1CCC[C@H]1C(=O)N[C@@H](Cc1c[nH]cn1)C(=O)N[C@@H](CCC(N)=O)C(=O)N[C@H](C(=O)N[C@@H](CO)C(=O)N[C@@H](CO)C(=O)N[C@H](C(N)=O)C(C)C)[C@@H](C)CC)[C@@H](C)CC)[C@@H](C)CC)[C@@H](C)O)[C@@H](C)O)C(C)C (some centres unmarked) [pal-A(P)I, palmitoyl-KLVANNTRL-TKmal(FFGINTIPIAC)PKG-GLIDIAPHQISSV] (I: Palmitoyl-KLVANNTRLTKPKGGLIDIAPHQISSV-NH2 / II: H-FFGINTIPIAC-NH2; linker I:11-II:11 via X1)
Hemolytic activity HC50 ± sd [1]: > 100 µM | water solubility [2]: very low water solubility

CC[C@H](C)[C@H](NC(=O)CNC(=O)[C@H](Cc1ccccc1)NC(=O)[C@@H](N)Cc1ccccc1)C(=O)N[C@@H](CC(N)=O)C(=O)N[C@H](C(=O)N[C@H](C(=O)N1CCC[C@H]1C(=O)N[C@H](C(=O)N[C@@H](C)C(=O)N[C@@H](CSC1CC(=O)N(CCCCCC(=O)NCCCC[C@H](NC(=O)[C@@H](NC(=O)[C@H](CC(C)C)NC(=O)[C@H](CCCNC(=N)N)NC(=O)[C@@H](NC(=O)[C@H](CC(N)=O)NC(=O)[C@H](CC(N)=O)NC(=O)[C@H](C)NC(=O)[C@@H](NC(=O)[C@H](CC(C)C)NC(=O)[C@H](CCCCN)NC(C)=O)C(C)C)[C@@H](C)O)[C@@H](C)O)C(=O)N2CCC[C@H]2C(=O)N[C@@H](CCCCN)C(=O)NCC(=O)NCC(=O)N[C@@H](CC(C)C)C(=O)N[C@H](C(=O)N[C@@H](CC(=O)O)C(=O)N[C@H](C(=O)N[C@@H](C)C(=O)N2CCC[C@H]2C(=O)N[C@@H](Cc2c[nH]cn2)C(=O)N[C@@H](CCC(N)=O)C(=O)N[C@H](C(=O)N[C@@H](CO)C(=O)N[C@@H](CO)C(=O)N[C@H](C(N)=O)C(C)C)[C@@H](C)CC)[C@@H](C)CC)[C@@H](C)CC)C1=O)C(N)=O)[C@@H](C)CC)[C@@H](C)CC)[C@@H](C)O (some centres unmarked) [A(P)I, KLVANNTRL-TKmal(FFGINTIPIAC)PKG-GLIDIAPHQISSV] (I: Ac-KLVANNTRLTKPKGGLIDIAPHQISSV-NH2 / II: H-FFGINTIPIAC-NH2; linker I:11-II:11 via X1; N-terminus and C-terminus assumed)
percentage of FITC-positive cells [3]: 21.5% | intracellular localization (MM6 cells): colocalization with lysosomes that was even more pronounced | time course of internalization, in words (antigen presenting cells): significantly slower than the internalization of pal-A(P)I
